In the CATMoS acute toxicity set (Mansouri et al. 2021) one finds LD50 data, which are given here for 62 molecules.

The data set is described as follows: rat acute oral toxicity. Conditions: in vivo. The source says: […]The data set underlying the modeling effort for this project was initially compiled by NICEATM and U.S. EPA’s CCTE. Briefly, LD50 data were collected from rat acute oral systemic toxicity tests, including limit tests, ranges/confidence intervals, and discrete LD50 values. The full data set included 21,200 LD50 entries for 15,688 substances. […] Data were reviewed to ensure that LD50 values with obvious errors in the extracted data such as unit conversion errors (e.g., comma and decimal separator misplacements) were either fixed or removed. After this review, 16,209 LD50 values remained. Many of the chemicals represented had multiple LD50 entries, requiring that a single representative value per Chemical Abstracts Service Registry Number (CASRN) identifier be defined to facilitate modeling efforts. Based on ATWG feedback and to define the representative LD50 as a protective value while accounting for the distribution across multiple LD50s, the median of the lowest quartile was computed using only discrete LD50 values (omitting limit test data and range and confidence interval data). A detailed summary of the data compilation is available online on the NICEATM webpage dedicated to the collaborative modeling project (NTP 2020).
[…][…] For categorical designations, limit test and range/confidence interval LD50 data were integrated wherever possible. As such, the number of chemicals with end point values/calls varies across the modeling end points (Table 3) based on whether chemicals had representative LD50 values and/or other data. If a chemical had both, the representative value was used to determine categorical calls rather than limit test data. Some data were useable only for certain end points and categories depending on the thresholds. For example, ranges that spanned multiple hazard categories were considered only for the binary (very toxic/nontoxic) end points and omitted from rendering a determination for hazard category assignment.
[…]The final data set comprising 11,992 chemicals was split into training and evaluation sets […], respectively. This process was performed semirandomly by ordering chemicals based on the five end points (categorical and continuous LD50 values) and partitioning every fourth record into the evaluation set accordingly. This approach was taken to ensure an equivalent distribution of the LD50 values and the different hazard categories between the training and the evaluation sets without supervised sampling of the chemicals based on structures (Figure 1A). The sources of the chemical structures were also kept equivalent between the two sets, with chemical structures obtained from DSSTox, being the highest quality, representing over 75% of each set (Figure 1B).
With `Cc1ccc(/N=C/N(C)/C=N/c2ccc(C)cc2C)c(C)c1`, the LD50 worked out at 400 mg/kg. The molecule `CCC(CC)CN` came in with an LD50 of 310 mg/kg. To `CC(C)OC(=O)COc1ccc(Cl)cc1Cl` belongs 375 mg/kg; to `Cn1sccc1=O`, 105 mg/kg; to `CCN(CC)CCCN`, 410 mg/kg.

With `CC(C)OC(=O)Nc1ccccc1`, the LD50 was 1000 mg/kg.

Molecule `CCCCCCCCCCCCNC(=N)N` registered an LD50 of 566 mg/kg. To `CCCCC(CC)COC(=O)c1ccccc1` (configuration not stated) belongs 2500 mg/kg; to `CC(CCl)OP(=O)(OC(C)CCl)OC(C)CCl` (configuration not stated), 980 mg/kg; to `C=CNC=O`, 1000 mg/kg. With `CCCCOCN(C(=O)CCl)c1c(CC)cccc1CC`, the LD50 was 1740 mg/kg.

Molecule `CC1=CCC(O)(C(C)C)CC1` (configuration not stated) showed an LD50 of 1300 mg/kg. Under `CC(C)(C)c1ccc(C(O)CCCN2CCC(C(O)(c3ccccc3)c3ccccc3)CC2)cc1` (configuration not stated) stands 438 mg/kg. To `COP(=S)(OC)Oc1ccc([N+](=O)[O-])cc1` belongs 6.01 mg/kg; to `CC1OC(C)OC(C)O1` (configuration not stated), 1530 mg/kg; to `C=CCOC(=O)c1ccccc1C(=O)OCC=C`, 656 mg/kg. On to `OCCOCCOc1ccccc1`, for which the LD50 came out at 2140 mg/kg. Under `OCCOCCOCCO` stands 17000 mg/kg.

Consider `ClC=C(Cl)Cl`, for which the LD50 was found to be 4920 mg/kg.

With `S=C=S`, the LD50 is 1200 mg/kg. Under `CCCCC=O` stands 4580 mg/kg; under `CC(C)NC(C)C`, 310 mg/kg.

`Ic1ccccc1` had an LD50 of 1750 mg/kg. The molecule `NC(=O)c1ccccc1Cl` returned an LD50 of 1250 mg/kg. Consider `CCOCCOC(C)=O`, for which the LD50 turned out to be 2700 mg/kg. The molecule `Oc1ccccc1Cl` registered an LD50 of 40 mg/kg.

Take `C=CC=O`: the LD50 came out at 11.1 mg/kg.

In turn, `O=C1CCCC(=O)O1` returned an LD50 of 540 mg/kg. To `CCN(CC)C(=S)S` belongs 1500 mg/kg; to `O=P(O)(O)CCCl`, 3400 mg/kg; to `CCOP(=O)(OCC)OC(=CCl)c1ccc(Cl)cc1Cl`, 9.66 mg/kg.

`COP(=S)(OC)Oc1cc(Cl)c(Br)cc1Cl` gave an LD50 of 1600 mg/kg. Under `COP(=S)(OC)Oc1nc(Cl)c(Cl)cc1Cl` stands 1500 mg/kg; under `COP(=O)(OC)O/C(C)=C/C(=O)N(C)C`, 9 mg/kg. To `CC1(C)CC(NCCCCCCNC2CC(C)(C)NC(C)(C)C2)CC(C)(C)N1` belongs 820 mg/kg; to `CN(C)c1ccc(N)cc1`, 50 mg/kg; to `OCC(CO)(CBr)CBr`, 1880 mg/kg.

In turn, `CCOP(=S)(OCC)SCSCC` returned an LD50 of 1 mg/kg. Under `CC(C)(O)C#N` stands 18.6 mg/kg.

Regarding `O=C(NCc1cccnc1)Nc1ccc([N+](=O)[O-])cc1`, the LD50 worked out at 4.75 mg/kg. To `O=C(Cl)c1ccccc1` belongs 2460 mg/kg; to `N#CSCSc1nc2ccccc2s1`, 679 mg/kg.

In the case of `CN(C)CCCCCCN(C)C`, the LD50 was found to be 238 mg/kg. As to `CCN(CC)C(=O)SCc1ccc(Cl)cc1`, the LD50 was found to be 920 mg/kg. Under `C=C[Si](ON=C(C)CC)(ON=C(C)CC)ON=C(C)CC` stands 3520 mg/kg.

Consider `N#CN`, for which the LD50 was 134 mg/kg. To `CC(Oc1cc(Cl)c(Cl)cc1Cl)C(=O)O` (configuration not stated) belongs 650 mg/kg. Turning to `C=C(C)C(=O)OCCCC`, the median lethal dose (LD50) worked out at 16000 mg/kg. Under `CCCCCCCCCCCCCCCC[N+](C)(C)C` stands 450 mg/kg. Under `O=P(OCC(Br)CBr)(OCC(Br)CBr)OCC(Br)CBr` (configuration not stated) stands 810 mg/kg; under `CCNCCO`, 1000 mg/kg.

`c1ccc2ncccc2c1` showed a median lethal dose (LD50) of 331 mg/kg. To `CCCC=O` belongs 2490 mg/kg; to `C=CCN=C=S`, 112 mg/kg; to `NC(=O)/C(=C\c1ccc([N+](=O)[O-])o1)c1ccco1`, 340 mg/kg.

As to `COP(=S)(OC)Oc1ccc(Sc2ccc(OP(=S)(OC)OC)cc2)cc1`, the LD50 worked out at 444 mg/kg. To `Clc1ccc(C2(Cn3cncn3)CC(Br)CO2)c(Cl)c1` (configuration not stated) belongs 328 mg/kg. Regarding `NC=O`, the LD50 turned out to be 5580 mg/kg. Under `CSc1nnc(C(C)(C)C)c(=O)n1N` stands 322 mg/kg.

As for `Oc1ccccc1-c1ccccc1`, the LD50 was determined as 718 mg/kg. For the molecule `CC(C)(C)CCCCCCCCCN`, the LD50 stood at 300 mg/kg.

`CSCCC=O` gave an LD50 of 490 mg/kg.

For orientation: LD50 means the dose expected to kill half of the subjects tested.
